Here are results for 16 molecules from ChEMBL document CHEMBL1155015, “Synthesis and cytotoxic activities of usnic acid derivatives” (Bioorg Med Chem, 2008).

Assay [1] relates to L1210. The experiment in a line: Cytotoxicity against mouse L1210 ATCC CCL 219 cells after 48 hrs by MTT assay. It counts as functional, cell-based. The note with it: L1210, 48 h. On the technique in general: Tetrazolium assays rely on reduction of a dye to a coloured formazan, in cell work by metabolically active cells.
Assay [2] has as its system CHO. The assay can be described thus: Cytotoxicity against CHO cells after 48 hrs by MTT assay. It counts as cell-based. The note with it: Cricetulus griseus.
The next assay concerns K562. The experiment in a line: Cytotoxicity against human K562 ATCC CCL 243 cells after 72 hrs by MTT assay. It counts as functional, cell-based. The note with it: K562, 72 h.
The test system of another assay is U-251. The experiment in a line: Cytotoxicity against human U251 RCB 0641 cells after 72 hrs by MTT assay. It is filed as functional, cell-based. As to conditions: U-251, 72 h.
In another assay the test system is MCF7. The experiment in a line: Cytotoxicity against human MCF7 ATCC HTB 22 cells after 72 hrs by MTT assay. As to conditions: MCF7, 72 h. It counts as functional, cell-based.
Assay [3] relates to CHO. The assay can be described thus: Cytotoxicity against polyamine transport-deficient mutant CHO cells after 48 hrs by MTT assay. The note with it: Cricetulus griseus. It is filed as ADME, cell-based.
Assay [4] relates to L1210. The assay can be described thus: Induction of apoptosis in mouse L1210 ATCC CCL 219 cells assessed as fragmented cell nuclei at 4.5 uM after 48 hrs by Hoechst 33342 staining. It counts as functional.
Assay [5] deals with L1210. The experiment in a line: Induction of apoptosis in mouse L1210 ATCC CCL 219 cells assessed as increase in caspase 3 activity at 6 uM after 48 hrs relative to control. It is filed as functional.
A further assay has as its system DU-145. The experiment in a line: Cytotoxicity against human DU145 ATCC HTB 81 cells after 72 hrs by MTT assay. It counts as functional, cell-based. As to conditions: DU-145, 72 h.
In assay [6] the test system is L1210. The assay can be described thus: Induction of apoptosis in mouse L1210 ATCC CCL 219 cells assessed as increase in caspase 3 activity at 3 uM after 48 hrs relative to control. It counts as functional.
Assay [7] can be described thus: Cytotoxicity against mouse 3LL CRL 1642 cells after 48 hrs by MTT assay. It is filed as functional, cell-based.
The subject of assay [8] is L1210. The assay can be described thus: Induction of apoptosis in mouse L1210 ATCC CCL 219 cells assessed as fragmented cell nuclei at 3 uM after 48 hrs by Hoechst 33342 staining. It is filed as functional.
Assay [9] has as its system L1210. The assay can be described thus: Induction of apoptosis in mouse L1210 ATCC CCL 219 cells assessed as fragmented cell nuclei at 6 uM after 48 hrs by Hoechst 33342 staining. It counts as functional.
The subject of assay [10] is L1210. The assay can be described thus: Induction of apoptosis in mouse L1210 ATCC CCL 219 cells assessed as fragmented cell nuclei at 4.5 uM after 24 hrs by Hoechst 33342 staining. It is filed as functional.
Assay [11] has as its system L1210. The experiment in a line: Induction of apoptosis in mouse L1210 ATCC CCL 219 cells assessed as increase in caspase 3 activity at 4.5 uM after 48 hrs relative to control. It is filed as functional.
In assay [12] the test system is L1210. The experiment in a line: Induction of apoptosis in mouse L1210 ATCC CCL 219 cells assessed as fragmented cell nuclei at 6 uM after 24 hrs by Hoechst 33342 staining. It counts as functional.
The subject of assay [13] is L1210. The experiment in a line: Induction of apoptosis in mouse L1210 ATCC CCL 219 cells assessed as fragmented cell nuclei at 3 uM after 24 hrs by Hoechst 33342 staining. It counts as functional.
The subject of assay [14] is L1210. The experiment in a line: Induction of apoptosis in mouse L1210 ATCC CCL 219 cells assessed as fragmented cell nuclei at 35 uM after 48 hrs by Hoechst 33342 staining. It is filed as functional.
For assay [15], the system named is L1210. The experiment in a line: Induction of apoptosis in mouse L1210 ATCC CCL 219 cells assessed as fragmented cell nuclei at 35 uM after 24 hrs by Hoechst 33342 staining. It counts as functional.
Assay [16] has as its system L1210. The experiment in a line: Induction of apoptosis in mouse L1210 ATCC CCL 219 cells assessed as increase in caspase 3 activity at 35 uM after 48 hrs relative to control. It is filed as functional.
Assay [17] deals with L1210. The experiment in a line: Induction of apoptosis in mouse L1210 ATCC CCL 219 cells assessed as increase in caspase 3 activity at 26 uM after 48 hrs relative to control. It counts as functional.
Assay [18] concerns L1210. The experiment in a line: Induction of apoptosis in mouse L1210 ATCC CCL 219 cells assessed as fragmented cell nuclei at 26 uM after 48 hrs by Hoechst 33342 staining. It is filed as functional.
The subject of assay [19] is L1210. The assay can be described thus: Induction of apoptosis in mouse L1210 ATCC CCL 219 cells assessed as increase in caspase 3 activity at 17 uM after 48 hrs relative to control. It is filed as functional.
Assay [20] deals with L1210. The experiment in a line: Induction of apoptosis in mouse L1210 ATCC CCL 219 cells assessed as fragmented cell nuclei at 17 uM after 24 hrs by Hoechst 33342 staining. It counts as functional.
Assay [21] relates to L1210. The experiment in a line: Induction of apoptosis in mouse L1210 ATCC CCL 219 cells assessed as fragmented cell nuclei at 17 uM after 48 hrs by Hoechst 33342 staining. It is filed as functional.
Assay [22] relates to L1210. The experiment in a line: Induction of apoptosis in mouse L1210 ATCC CCL 219 cells assessed as fragmented cell nuclei at 26 uM after 24 hrs by Hoechst 33342 staining. It counts as functional.
For assay [23], the system named is L1210. The experiment in a line: Induction of apoptosis in mouse L1210 ATCC CCL 219 cells assessed as fragmented cell nuclei at 1.7 uM after 48 hrs by Hoechst 33342 staining. It counts as functional.
Assay [24] relates to L1210. The experiment in a line: Induction of apoptosis in mouse L1210 ATCC CCL 219 cells assessed as fragmented cell nuclei at 1.7 uM after 24 hrs by Hoechst 33342 staining. It counts as functional.
The test system of assay [25] is L1210. The assay can be described thus: Induction of apoptosis in mouse L1210 ATCC CCL 219 cells assessed as increase in caspase 3 activity at 1.7 uM after 48 hrs relative to control. It is filed as functional.

Each structure is given as a SMILES string.

On to `NCCCCCCCCN`, for which the IC50 with L1210 [1] and with CHO [2] was more than 100 µM in each case.
As to `CCOC(=O)[C@H](CC(C)C)N/C(C)=C1\C(=O)C=C2Oc3c(C(C)=O)c(O)c(C)c(O)c3[C@@]2(C)C1=O`, the IC50 (usually the midpoint of a concentration-inhibition curve) in the assay on K562 was 60.7 µM; in the assay on L1210 [1], 48.9 µM; with U-251, more than 100 µM; in the assay on MCF7 it was more than 100 µM.
For `CCOC(=O)[C@H](Cc1ccccc1)N/C(C)=C1\C(=O)C=C2Oc3c(C(C)=O)c(O)c(C)c(O)c3[C@@]2(C)C1=O`, the IC50 was more than 100 µM in the assay on K562, 74.4 µM in the assay with L1210 [1], more than 100 µM in the assay with U-251 and more than 100 µM with MCF7.
Turning to `CC(=O)c1c(O)c(C)c(O)c2c1OC1=CC(=O)/C(=C(/C)NCCCCN)C(=O)[C@@]12C`, the concentration for half-maximal inhibition (IC50) amounted to 12 µM in the assay on L1210 [1], 12 µM with CHO [3] and 10.7 µM in the assay with CHO [2].
`CC(=O)c1c(O)c(C)c(O)c2c1OC1=CC(=O)/C(=C(/C)NCCCNCCCCNCCCN)C(=O)[C@@]12C`: the IC50 in the assay with L1210 [1] stood at 15.3 µM; in the assay on CHO [3], 59 µM; in the assay with CHO [2], 48 µM; in the assay on U-251, 4.4 µM; in the assay with MCF7, 11.2 µM.
Consider `CC(=O)c1c(O)c(C)c(O)c2c1OC1=CC(=O)/C(=C(/C)NCCCCO)C(=O)[C@@]12C`, for which the IC50 in the assay with L1210 [1] was 19.9 µM; in the assay on CHO [2], 19.5 µM.
As for `CC(=O)c1c(O)c(C)c(O)c2c1OC1=CC(=O)/C(=C(/C)NCCCNCCCCN)C(=O)[C@@]12C`, the IC50 with L1210 [1] is 8.4 µM; in the assay with CHO [3], 28 µM; in the assay with CHO [2], 29.3 µM; in the assay with U-251, 12.5 µM; with MCF7, 9.9 µM.
On to `CC[C@H](C)[C@H](N/C(C)=C1\C(=O)C=C2Oc3c(C(C)=O)c(O)c(C)c(O)c3[C@@]2(C)C1=O)C(=O)O`, for which the 50% inhibitory concentration (IC50) is 56.7 µM in the assay with K562, 17.4 µM in the assay on L1210 [1] and more than 100 µM with MCF7.
As to `CCCCCCCCCN/C(C)=C1\C(=O)C=C2Oc3c(C(C)=O)c(O)c(C)c(O)c3[C@@]2(C)C1=O`, the IC50 with L1210 [1] is more than 500 µM.
Consider `CC(=O)c1c(O)c(C)c(O)c2c1OC1=CC(=O)/C(=C(/C)NCCCCCCCCN)C(=O)[C@@]12C`, for which the 50% inhibitory concentration (IC50) in the assay with K562 was determined as 7.2 µM; in the assay on DU-145, 14 µM; in the assay with L1210 [1], 2.7 µM; in the assay on CHO [3], 5 µM; with CHO [2], 3.5 µM; in [7] it was 8.2 µM. Besides, the results for the IC50 in the assay on U-251 and with MCF7 were 8.2 µM and 5.8 µM, respectively. Besides, the Activity with L1210 [4] is listed as 42%; in the assay with L1210 [5], 1.7; with L1210 [6] it was 1.4; with L1210 [8], 37%; in the assay on L1210 [9] it was 48%; in the assay on L1210 [10], 38%. The Activity with L1210 [11] was 1.7; in the assay with L1210 [12], 35%; in the assay on L1210 [13], 37%.
For `CC(=O)C1=C(O)C=C2Oc3c(C(C)=O)c(O)c(C)c(O)c3C2(C)C1=O` (single isomer, unassigned) [(-)-USNIC ACID], the half-inhibitory concentration (IC50) with K562 was determined as 21.8 µM; in the assay on DU-145, 45.9 µM; in the assay with L1210 [1], 17.4 µM; in assay [7], 35.1 µM; in the assay with U-251 it was 19.7 µM; in the assay with MCF7 it was 51.7 µM.
Turning to `CC(=O)C1=C(O)C=C2Oc3c(C(C)=O)c(O)c(C)c(O)c3[C@@]2(C)C1=O` [(+)-USNIC ACID], the Activity came out at 42% with L1210 [14]; 35% in the assay on L1210 [15]; 21.9 in the assay with L1210 [16]; 7.4 with L1210 [17]; 38% in the assay on L1210 [18]; 3.4 in the assay with L1210 [19]. For the same molecule, the values for the Activity in the assay with L1210 [20], with L1210 [21] and with L1210 [22] were 30%, 33% and 32%, respectively. Also, the 50% inhibitory concentration (IC50) in the assay with K562 turned out to be 52.8 µM; with DU-145, 57.4 µM; with L1210 [1] it was 26.4 µM; in the assay on CHO [3], 30 µM; with CHO [2], 31.3 µM; in [7] it was 23 µM. The values for the IC50 in the assay with U-251 and in the assay with MCF7 were 19.5 µM and 105 µM, respectively.
In the case of `COc1cc([C@@H]2c3cc4c(cc3[C@@H](O[C@@H]3O[C@@H]5CO[C@@H](C)O[C@H]5[C@H](O)[C@H]3O)[C@H]3COC(=O)[C@H]23)OCO4)cc(OC)c1O` [ETOPOSIDE], the IC50 in the assay with K562 was 4.9 µM; in the assay on DU-145, 1.5 µM; in the assay with L1210 [1] it was 0.5 µM; in assay [7] it was 4 µM; in the assay with U-251 it was 0.5 µM. The Activity in the assay with L1210 [23] is on record as 53%; in the assay with L1210 [24], 47%; in the assay on L1210 [25], 19.5.
With `NCCCCN` [PUTRESCINE], the IC50 with L1210 [1], with CHO [3] and in the assay with CHO [2] was more than 100 µM each time.
On to `NCCCCNCCCN` [SPERMIDINE], for which the IC50 with L1210 [1], in the assay on CHO [3] and in the assay with CHO [2] was more than 100 µM throughout.
`NCCCNCCCCNCCCN` [SPERMINE]: the half-inhibitory concentration (IC50) with L1210 [1] is 54.5 µM; in the assay on CHO [3], more than 100 µM; with CHO [2], more than 100 µM.
